Measured values as given in patent US10399933B2, “Inhibitors of indoleamine-2,3-dioxygenase for the treatment of cancer” (BRISTOL-MYERS SQUIBB COMPANY, priority 2015, dated 2019).

The compounds below were run against human IDO1 (Homo sapiens, UniProt P14902) (assay: Human IDO-1 inhibitory activity in Hela cells (interferon-gamma stimulated)). Conditions: 18 hours, unstimulated wells = 100% inhibition.
Assay type: cell-based
Parameters: endogenous in cells; host or cells: HeLa cells stimulated with interferon-gamma
Description: HeLa cells were seeded at 20,000 cells per 30 μL per well with RPMI/phenol red free media containing 10% FBS in a 384-well tissue culture plate (black with clear bottoms). 50 nL of compound was added to cells and incubated at 37° C. for one hour. 20 μL of the recombinant human Interferon-gamma (R&D System, Cat. #285-IF, at final concentration of 10 ng/ml) or recombinant murine Interferon-gamma (PEPROTECH® Inc., Cat. #315-05, final concentration of 5 ng/ml) was added to activate IDO signaling. The cells were incubated for 18 hours in 37° C. incubator with 5% CO2.
Compound treatment was stopped by adding 5 μl trichloroacetic acid to a final concentration of 3%. Subsequently, the cell plate was further incubated at 50° C. for 30 minute. An equal volume supernatant (20 μL) and 2% (w/v) Ehrlich reagent (4-dimethylaminobenzaldehyde) in glacial acetic acid were mixed in a new clear bottom 384-well plate. This plate was incubated at room temperature for 30 minutes. Absorbance at 490 nm was measured on Envision plate reader.
Compound IC50 values were calculated using counts from unstimulated (no INF-gamma treatment) wells as 100% inhibition. INF-gamma treatment without compound treatment as 0% inhibition.

Sequence of human IDO1 (P14902 whole entry): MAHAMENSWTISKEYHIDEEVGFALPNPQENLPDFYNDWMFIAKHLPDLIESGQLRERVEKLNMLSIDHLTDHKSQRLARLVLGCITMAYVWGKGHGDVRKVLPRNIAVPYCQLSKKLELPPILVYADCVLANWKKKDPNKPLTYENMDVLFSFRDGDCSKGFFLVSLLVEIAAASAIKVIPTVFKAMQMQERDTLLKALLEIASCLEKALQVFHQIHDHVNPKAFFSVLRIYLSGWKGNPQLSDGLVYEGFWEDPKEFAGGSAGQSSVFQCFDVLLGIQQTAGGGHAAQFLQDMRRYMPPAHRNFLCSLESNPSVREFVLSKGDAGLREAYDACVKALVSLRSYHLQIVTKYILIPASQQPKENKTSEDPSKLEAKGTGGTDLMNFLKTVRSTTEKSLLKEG

Compound	IC50 [nM]
CCN(c1ccc(C(COC)CC(=O)O)cc1Nc1ccc(C#N)cc1)C1CCCOC1 (single isomer, unassigned) [264 E1]	< 50
CCN(c1ccc(C(COC)CC(=O)O)cc1Nc1ccc(C#N)cc1)C1CCCOC1 (single isomer, unassigned) [265 E1]	< 5
CCN(c1ccc(C(COC)CC(=O)O)cc1Nc1ccc(C#N)cc1)C1CCCOC1 (single isomer, unassigned) [265 E2]	< 5
CCN(c1ccc(C(COC)CC(=O)O)cc1Nc1cnc(OC)nc1)C1CCS(=O)(=O)CC1 (single isomer, unassigned) [Example 168 Enantiomer 1, 3-(4-((1,1-Dioxidotetrahydro-2H-thiopyran-4-yl)(ethyl)amino)-3-((2-methoxypyrimidin-5-yl)amino)phenyl)-4-methoxybutanoic Acid]	> 50
CCN(c1ccc(C(COC)CC(=O)O)cc1Nc1cnc(OC)nc1)C1CCS(=O)(=O)CC1 (single isomer, unassigned) [Example 168 Enantiomer 2, 3-(4-((1,1-Dioxidotetrahydro-2H-thiopyran-4-yl)(ethyl)amino)-3-((2-methoxypyrimidin-5-yl)amino)phenyl)-4-methoxybutanoic Acid]	> 50
CCCN(c1ccc(C(COC)CC(=O)O)cc1Nc1ccc(C#N)cc1)C1CCS(=O)(=O)CC1 (single isomer, unassigned) [Example 182 Enantiomer 1, 3-(3-((4-Cyanophenyl)amino)-4-((1,1-dioxidotetrahydro-2H-thiopyran-4-yl)(propyl)amino)phenyl)-4-methoxybutanoic Acid]	< 50
CCCN(c1ccc(C(COC)CC(=O)O)cc1Nc1ccc(C#N)cc1)C1CCS(=O)(=O)CC1 (single isomer, unassigned) [Example 182 Enantiomer 2, 3-(3-((4-Cyanophenyl)amino)-4-((1,1-dioxidotetrahydro-2H-thiopyran-4-yl)(propyl)amino)phenyl)-4-methoxybutanoic Acid]	> 50
CCN(c1ccc(C(CC(=O)O)C2CC2)cc1NC(=O)Nc1ccc(C#N)cc1)C1CCS(=O)(=O)CC1 (single isomer, unassigned) [Example 348 E1, 3-(3-(3-(4-Cyanophenyl)ureido)-4-((1,1-dioxidotetrahydro-2H-thiopyran-4-yl)(ethyl)amino)phenyl)-3-cyclopropylpropanoic Acid]	> 50
CCN(c1ccc(C(CC(=O)O)C2CC2)cc1NC(=O)Nc1ccc(C#N)cc1)C1CCS(=O)(=O)CC1 (single isomer, unassigned) [Example 348 E2, 3-(3-(3-(4-Cyanophenyl)ureido)-4-((1,1-dioxidotetrahydro-2H-thiopyran-4-yl)(ethyl)amino)phenyl)-3-cyclopropylpropanoic Acid]	> 50
CCN(c1ccc([C@H](COC)CC(=O)O)cc1Nc1ccc(C#N)c(F)c1)C1CCOCC1 (single isomer, unassigned) [Example 390]	< 5

More lines, now with the values ahead:

IC50 [nM]	Compound
> 50	3-(4-((1,1-dioxido- tetrahydro-2H- thiopyran-4-yl) (ethyl)amino)-3- ((4-fluorophenyl) amino)phenyl)-4- isopropoxy- butanoic acid [Example 341]
> 50	3-(4-((1,1-dioxidotetrahydro-2H- thiopyran-4-yl)(ethyl)amino)-3- ((4-fluorophenyl)amino)phenyl)-4- isopropoxybutanoic acid [Example 345]
< 5	CCN(c1ccc(C(COC)CC(=O)O)cc1Nc1ccc(C#N)cc1)C1CCCOC1 (single isomer, unassigned) [264 E2]
> 50	CCOc1ncc(Nc2cc(C(COC)CC(=O)O)ccc2N(CC)C2CCS(=O)(=O)CC2)cn1 (single isomer, unassigned) [Example 175, 3-(4-((1,1-dioxidotetrahydro-2H-thiopyran-4-yl)(ethyl)amino)-3-((2-ethoxypyrimidin-5-yl)amino)phenyl)-4-methoxybutanoic acid]
< 50	CCN(c1ccc([C@H](COC)CC(=O)O)cc1Nc1ccc(C#N)cn1)C1CCOCC1 (single isomer, unassigned) [Example 389]
